biological target: recombinant human S1P1 receptor (Homo sapiens, UniProt P21453); test: GTPγS assay to determine EC50 values; type: biochemical; conditions: 35S-GTPγS binding, membrane preparations of CHO cells expressing recombinant human S1P1 receptor, pH 7.4
Protocol: GTPγS binding assays are performed in 96 well microtiter plates (Nunc, 442587) in a final volume of 200 μl, using membrane preparations of CHO cells expressing recombinant human S1P1 receptor. Assay conditions are 20 mM Hepes (Fluka, 54461), 100 mM NaCl (Fluka, 71378), 5 mM MgCl2 (Fluka, 63064), 0.1% BSA (Calbiochem, 126609), 1 μM GDP (Sigma, G-7127), 2.5% DMSO (Fluka, 41644), […] ^35S-GTPγS (Amersham Biosciences, SJ1320). The pH is 7.4. Test compounds are dissolved and diluted in 100% DMSO and pre-incubated at room temperature for 30 min in 150 μl of the above assay buffer, in the absence of ^35S-GTPγS. After addition of 50 μl of ^35S-GTPγS, the assay is incubated for 1 h at room temperature.
The assay is terminated by transfer of the reaction mixture to a Multiscreen plate (Millipore, MAHFC1H60) using a cell harvester from Packard Biosciences, and the plates are washed with ice-cold 10 mM Na2HPO4/NaH2PO4 (70%/30%), dried, sealed at the bottom and, after addition of 25 μl MicroScint20 (Packard Biosciences, order no. 6013621), sealed on the top. Membrane-bound ^35S-GTPγS is measured with a TopCount from Packard Biosciences.
EC50 is the concentration of agonist inducing 50% of the maximal specific ^35S-GTPγS binding. Specific binding is determined by subtracting non-specific binding from maximal binding. Maximal binding is the amount of cpm bound to the Multiscreen plate in the presence of 10 μM of S1P. Non-specific binding is the amount of binding in the absence of an agonist in the assay.

Chain of recombinant human S1P1 receptor (P21453 whole entry): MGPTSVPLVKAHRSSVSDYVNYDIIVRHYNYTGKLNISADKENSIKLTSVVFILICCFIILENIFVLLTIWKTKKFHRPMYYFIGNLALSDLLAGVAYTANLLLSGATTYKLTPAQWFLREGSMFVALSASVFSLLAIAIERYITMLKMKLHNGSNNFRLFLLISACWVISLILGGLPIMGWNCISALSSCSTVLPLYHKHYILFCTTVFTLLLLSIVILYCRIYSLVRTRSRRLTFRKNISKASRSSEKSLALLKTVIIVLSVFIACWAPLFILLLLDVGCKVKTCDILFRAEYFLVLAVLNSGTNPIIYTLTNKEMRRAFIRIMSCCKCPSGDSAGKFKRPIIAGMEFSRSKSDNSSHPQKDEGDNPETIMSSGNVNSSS

SMILES	EC50 [nM]
CCc1sc(C(=O)CCc2cc(C)c(OC[C@@H](O)CO)c(C)c2)cc1-c1ccccc1C [Example 20, 3-[4-((S)-2,3-dihydroxy-propoxy)-3,5-dimethyl-phenyl]-1-(5-ethyl-4-o-tolyl-thiophen-2-yl)-propan-1-one]	6.3
CCc1ccccc1-c1cc(C(=O)CCc2cc(C)c(OC[C@@H](O)CO)c(C)c2)sc1CC [Example 31]	9.3
CCc1sc(C(=O)CCc2cc(C)c(OC[C@@H](O)CO)c(C)c2)cc1-c1ccccc1OC [Example 50]	11.5

Second part, the molecule after the results:

EC50 [nM]	SMILES
6.7	CCc1sc(C(=O)CCc2cc(C)c(OC[C@@H](O)CO)c(C)c2)cc1-c1ccccc1 [Example 10, 3-[4-((S)-2,3-dihydroxy-propoxy)-3,5-dimethyl-phenyl]-1-(5-ethyl-4-phenyl-thiophen-2-yl)-propan-1-one]
18.3	CCc1sc(C(=O)CCc2cc(C)c(CC(O)CO)c(C)c2)cc1-c1ccccc1 (stereo not shown) [Example 11, 3-[4-(2,3-dihydroxy-propyl)-3,5-dimethyl-phenyl]-1-(5-ethyl-4-phenyl-thiophen-2-yl)-propan-1-one]
16.4	CCCc1sc(C(=O)CCc2cc(C)c(OC[C@@H](O)CO)c(C)c2)cc1-c1ccccc1 [Example 24, 3-[4-((S)-2,3-dihydroxy-propoxy)-3,5-dimethyl-phenyl]-1-(4-phenyl-5-propyl-thiophen-2-yl)-propan-1-one]

tested on: circulating lymphocytes; test: Assessment of in vivo efficacy: circulating lymphocytes after oral administration; conditions: 3 h after oral administration of 10 mg/kg to normotensive male Wistar rats, compared to vehicle-treated group
Protocol: The efficacy of the compounds of Formula (I) is assessed by measuring the circulating lymphocytes after oral administration of 3 to 30 mg/kg of a compound of Formula (I) to normotensive male Wistar rats. The animals are housed in climate-controlled conditions with a 12 h-light/dark cycle, and have free access to normal rat chow and drinking water. Blood is collected before and 3, 6 and 24 h after drug administration. Full blood is subjected to hematology using Advia Hematology system (Bayer Diagnostics, Zürich, Switzerland).
All data are presented as mean±SEM. Statistical analyses are performed by analysis of variance (ANOVA) using Statistica (StatSoft) and the Student-Newman-Keuls procedure for multiple comparisons. The null hypothesis is rejected when p<0.05.

SMILES	Lymphocyte counts [%]
CCc1sc(C(=O)CCc2cc(C)c(OC[C@@H](O)CO)c(C)c2)cc1-c1ccccc1 [Example 10, 3-[4-((S)-2,3-dihydroxy-propoxy)-3,5-dimethyl-phenyl]-1-(5-ethyl-4-phenyl-thiophen-2-yl)-propan-1-one]	−48.5
